Experimental data from ChEMBL document CHEMBL1201862, “PubChem BioAssay data set” (2004).
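The compound was tested at five concentrations on cells cultured in 96-well plates, with a 48-hour exposure period. GI50: concentration for 50% inhibition of growth.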 Calls of active or inactive are those of the source. No stated cut-off is given here; in the data, active = GI50 up to about 1.1 µM and inactive = higher.

Columns and labels:
Test in all cases: NCI-60 cell line screen, 48 h
SR = tested on: SR
SF-268 = tested on: SF-268
U-251 = tested on: U-251
A498 = tested on: A498
HCT-116 = tested on: HCT-116
TK-10 = tested on: TK-10
PC-3 = tested on: PC-3
HCT-15 = tested on: HCT-15
OVCAR-8 = tested on: OVCAR-8
SK-MEL-5 = tested on: SK-MEL-5
MOLT-4 = tested on: MOLT-4
786-0 = tested on: 786-0
SK-MEL-28 = tested on: SK-MEL-28
Hs-578T = tested on: Hs-578T
UACC-257 = tested on: UACC-257
SK-MEL-2 = tested on: SK-MEL-2
NCI/ADR-RES = tested on: NCI/ADR-RES
MCF7 = tested on: MCF7
SF-539 = tested on: SF-539
NCI-H226 = tested on: NCI-H226
ACHN = tested on: ACHN
BT-549 = tested on: BT-549
HCC 2998 = tested on: HCC 2998
IGROV-1 = tested on: IGROV-1
MDA-N = tested on: MDA-N
HL-60 = tested on: HL-60
RPMI-8226 = tested on: RPMI-8226
SN12C = tested on: SN12C
LOX IMVI = tested on: LOX IMVI
MDA-MB-231 = tested on: MDA-MB-231
COLO 205 = tested on: COLO 205
CCRF-CEM = tested on: CCRF-CEM
HOP-92 = tested on: HOP-92
NCI-H460 = tested on: NCI-H460
Malme-3M = tested on: Malme-3M
SW-620 = tested on: SW-620
NCI-H23 = tested on: NCI-H23
NCI-H522 = tested on: NCI-H522
K562 = tested on: K562
UACC-62 = tested on: UACC-62
MDA-MB-435 = tested on: MDA-MB-435
A549 = tested on: A549
CAKI-1 = tested on: CAKI-1
T47D = tested on: T47D
M14 = tested on: M14
SK-OV-3 = tested on: SK-OV-3
DU-145 = tested on: DU-145
SNB-19 = tested on: SNB-19
OVCAR-3 = tested on: OVCAR-3
SF-295 = tested on: SF-295
HT-29 = tested on: HT-29
OVCAR-4 = tested on: OVCAR-4
EKVX = tested on: EKVX
SNB-75 = tested on: SNB-75
RXF 393 = tested on: RXF 393
UO-31 = tested on: UO-31
HOP-62 = tested on: HOP-62
OVCAR-5 = tested on: OVCAR-5
KM12 = tested on: KM12

Measured: GI50

Nc1c2c(nc3ccccc13)CCCCCC2
30.3 µM: HCT-15
inactive: SR 15.7 µM | SF-268 39.3 µM | U-251 26.8 µM | A498 20.7 µM | HCT-116 20.8 µM | TK-10 15.2 µM | PC-3 20.8 µM | OVCAR-8 30.4 µM | SK-MEL-5 17.5 µM | MOLT-4 27.2 µM | 786-0 16.4 µM | SK-MEL-28 13.8 µM | Hs-578T 38.5 µM | UACC-257 15.4 µM | SK-MEL-2 13.7 µM | NCI/ADR-RES 37.5 µM | MCF7 26.9 µM | SF-539 16.1 µM | NCI-H226 43.3 µM | ACHN 27.1 µM | BT-549 84.5 µM | HCC 2998 14.4 µM | IGROV-1 22.4 µM | MDA-N 16.5 µM | HL-60 7.26 µM | RPMI-8226 19.1 µM | SN12C 40.7 µM | LOX IMVI 16 µM | MDA-MB-231 18.5 µM | COLO 205 14.2 µM | CCRF-CEM 15.6 µM | HOP-92 13.6 µM | NCI-H460 16.6 µM | Malme-3M 18 µM | SW-620 17.1 µM | NCI-H23 42.1 µM | NCI-H522 19.6 µM | K562 21.5 µM | UACC-62 16.6 µM

CCOc1cc(CC[N+](C)(C)C)c2c(ccc3ccc(OC)c(OC)c32)c1OC
inactive: SR > 100 µM | SF-268 > 100 µM | U-251 > 100 µM | HCT-116 > 100 µM | PC-3 > 100 µM | OVCAR-8 > 100 µM | SK-MEL-5 63 µM | MOLT-4 > 10 µM | MDA-MB-435 > 100 µM | A549 > 100 µM | 786-0 > 100 µM | SK-MEL-28 > 100 µM | NCI/ADR-RES > 100 µM | ACHN > 100 µM | BT-549 19.4 µM | HCC 2998 > 100 µM | CAKI-1 > 100 µM | IGROV-1 > 100 µM | MDA-N > 100 µM | RPMI-8226 16.8 µM | T47D > 100 µM | SN12C > 100 µM | M14 > 100 µM | SK-OV-3 > 100 µM | DU-145 > 100 µM | MDA-MB-231 > 100 µM | COLO 205 > 100 µM | SNB-19 > 100 µM | OVCAR-3 53.3 µM | HOP-92 > 100 µM | SF-295 > 100 µM | HT-29 > 100 µM | OVCAR-4 > 10 µM | EKVX > 100 µM | Malme-3M > 100 µM | SW-620 > 100 µM | NCI-H23 > 10 µM | SNB-75 > 100 µM | RXF 393 > 10 µM | UO-31 > 100 µM | NCI-H522 > 100 µM | UACC-62 > 100 µM

C=C(C)C12OC3(c4ccccc4)OC1C1C4OC4(CO)C(O)C4(O)C(=O)C(C)=CC4C1(O3)C(C)C2OC(=O)/C=C/C=C/c1ccccc1 (stereo not drawn)
inactive: T47D 1.51 µM | SK-OV-3 1.15 µM
0.258 µM: HCT-15
active: SR 0.122 µM | SF-268 0.247 µM | U-251 0.197 µM | A498 < 0.0005 µM | HCT-116 0.228 µM | TK-10 < 0.0005 µM | PC-3 0.111 µM | HOP-62 0.551 µM | OVCAR-8 0.357 µM | SK-MEL-5 0.0716 µM | MOLT-4 0.113 µM | MDA-MB-435 < 0.0005 µM | A549 < 0.0005 µM | 786-0 0.101 µM | SK-MEL-28 0.33 µM | UACC-257 0.453 µM | SK-MEL-2 0.337 µM | OVCAR-5 0.0802 µM | NCI/ADR-RES 0.344 µM | MCF7 0.222 µM | SF-539 0.372 µM | NCI-H226 0.228 µM | KM12 0.156 µM | ACHN < 0.0005 µM | BT-549 0.203 µM | HCC 2998 < 0.0005 µM | CAKI-1 0.504 µM | IGROV-1 0.537 µM | MDA-N < 0.0005 µM | HL-60 < 0.0005 µM | RPMI-8226 0.107 µM | SN12C 0.112 µM | LOX IMVI 0.0968 µM | M14 0.0853 µM | DU-145 0.215 µM | MDA-MB-231 < 0.0005 µM | COLO 205 < 0.0005 µM | SNB-19 0.713 µM | CCRF-CEM 0.128 µM | OVCAR-3 0.109 µM | HOP-92 < 0.0005 µM | SF-295 < 0.0005 µM | HT-29 0.0836 µM | OVCAR-4 0.173 µM | EKVX 0.188 µM | NCI-H460 < 0.0005 µM | Malme-3M 0.474 µM | NCI-H23 0.312 µM | SNB-75 0.132 µM | RXF 393 0.207 µM | UO-31 0.0702 µM | NCI-H522 0.267 µM | K562 < 0.0005 µM | UACC-62 0.253 µM

Clc1nss/c1=N/c1nonc1-c1ccccc1
> 100 µM: HCT-15
inactive: SR 18.4 µM | U-251 41.1 µM | A498 71.6 µM | HCT-116 34.9 µM | PC-3 38.3 µM | HOP-62 51.3 µM | OVCAR-8 28.6 µM | SK-MEL-5 20.3 µM | MOLT-4 25.1 µM | MDA-MB-435 38.6 µM | A549 68.9 µM | 786-0 30.5 µM | SK-MEL-28 48.1 µM | UACC-257 33 µM | SK-MEL-2 34.9 µM | OVCAR-5 19.5 µM | NCI/ADR-RES 24 µM | MCF7 22.7 µM | SF-539 22.7 µM | NCI-H226 29.6 µM | KM12 31 µM | ACHN 18.6 µM | BT-549 29.6 µM | HCC 2998 > 100 µM | CAKI-1 17.1 µM | IGROV-1 26.4 µM | MDA-N 20.1 µM | HL-60 3.62 µM | RPMI-8226 27.2 µM | SN12C 18 µM | LOX IMVI 27.3 µM | M14 16 µM | SK-OV-3 > 100 µM | DU-145 22.7 µM | MDA-MB-231 14 µM | COLO 205 20.4 µM | SNB-19 55.6 µM | CCRF-CEM 17.9 µM | OVCAR-3 39 µM | HOP-92 40.2 µM | SF-295 55.2 µM | HT-29 22 µM | OVCAR-4 49.9 µM | EKVX 37.4 µM | NCI-H460 > 100 µM | Malme-3M 28 µM | SW-620 41.6 µM | NCI-H23 26.1 µM | SNB-75 23.2 µM | RXF 393 29.2 µM | UO-31 17.6 µM | NCI-H522 18.3 µM | K562 23.2 µM | UACC-62 33.3 µM

CCOC(=O)C(NC(=O)NC(C(=O)OCC)C(=O)OCC)C(=O)OCC
inactive: SR > 100 µM | SF-268 > 100 µM | U-251 > 100 µM | HCT-116 > 100 µM | TK-10 > 100 µM | PC-3 > 100 µM | HOP-62 > 100 µM | OVCAR-8 > 100 µM | SK-MEL-5 > 100 µM | MOLT-4 > 100 µM | MDA-MB-435 98.2 µM | A549 > 100 µM | 786-0 > 100 µM | SK-MEL-28 > 100 µM | Hs-578T > 100 µM | UACC-257 > 10 µM | SK-MEL-2 > 100 µM | OVCAR-5 > 100 µM | NCI/ADR-RES > 100 µM | MCF7 > 100 µM | SF-539 > 100 µM | NCI-H226 > 100 µM | ACHN > 100 µM | BT-549 > 100 µM | HCC 2998 > 100 µM | CAKI-1 > 100 µM | IGROV-1 > 100 µM | MDA-N > 100 µM | RPMI-8226 > 100 µM | SN12C > 100 µM | M14 > 100 µM | SK-OV-3 > 100 µM | DU-145 > 100 µM | SNB-19 > 100 µM | OVCAR-3 > 100 µM | HOP-92 > 100 µM | SF-295 49.9 µM | HT-29 > 100 µM | EKVX > 100 µM | NCI-H460 > 100 µM | Malme-3M > 100 µM | SW-620 > 100 µM | NCI-H23 > 100 µM | RXF 393 > 100 µM | UO-31 > 100 µM | NCI-H522 > 100 µM | K562 > 100 µM | UACC-62 > 100 µM
> 100 µM: HCT-15
